Experimental data reported in PMC6008492, “Structure activity relationship studies on rhodanines and derived enethiol inhibitors of metallo-β-lactamases” (Bioorganic & Medicinal Chemistry, 2018).

Legend:
[1] = molecular target: T1, IMP-1 (Serratia marcescens, UniProt P52699); assay: IMP-1 inhibition, fluorogenic cephalosporin (FC5) hydrolysis; format: biochemical; conditions: enethiols 6 assayed as sodium salts; 10 min incubation; read-out: IC50 IMP-1 (converted)
T1 construct: made in house
Description: (§1) Inhibition analyses against bacterial MBLs and SBLs were performed as described previously.[22], [24], [26] Residual enzyme activities were determined for a range of inhibitor concentrations. Non-linear regression fitting of IC50 curves was carried out using a three-parameter dose–response curve in GraphPad Prism. Errors in IC50 values are expressed as: σ(logIC50)/logIC50×IC50
(§2) We first screened the inhibitors against a representative set of presently clinically important and other MBLs[22], comprising both Class B1 enzymes (NDM-1, New Delhi MBL-1; VIM-2, Verona integron–encoded MBL-2; BcII, Bacillus cereus II MBL; SPM-1, São Paulo MBL-1; IMP-1, imipenemase MBL-1) and the Class B2 MBL CphA (carbapenem hydrolysing MBL from Aeromonas hydrophila).[22] The latter MBL (CphA) only utilises one active site Zn(II) ion in catalysis, whilst the others normally use two Zn(II) ions.
Figure S3: IC50 curves for IMP-1 inhibition time courses. Residual activities were calculated from the
initial rate of FC5 hydrolysis after incubation of the enzyme with the inhibitor for 10 minutes.

[2] = molecular target: SPM-1 (Pseudomonas aeruginosa, UniProt Q8G9Q0); assay: SPM-1 inhibition, fluorogenic cephalosporin (FC5) hydrolysis; format: biochemical; conditions: enethiols 6 assayed as sodium salts; 10 min incubation; read-out: IC50 SPM-1 (converted)
Description: as §1, §2
Figure S5: IC50 curves for SPM-1 inhibition time courses. Residual activities were calculated from the
(§3) initial rate of FC5 hydrolysis after incubation of the enzyme with the inhibitor for 10 minutes. […]

[3] = molecular target: T2, NDM-1 (Klebsiella pneumoniae, UniProt C7C422); assay: NDM-1 inhibition, fluorogenic cephalosporin (FC5) hydrolysis; format: biochemical; conditions: enethiols 6 assayed as sodium salts; 10 min incubation; read-out: IC50 NDM-1
T2 construct: made in house
Description: as §1, §2
Figure S4: IC50 curves for NDM-1 inhibition time courses. Residual activities were calculated from the
as §3

[4] = molecular target: T3, VIM-2 (Escherichia coli, UniProt Q5U7L7); assay: biochemical; conditions: enethiols 6 assayed as sodium salts; 10 min incubation; read-out: IC50 VIM-2 (converted)
T3 construct: made in house
Description: as §1
as §2, with “ions. We also screened the inhibitors against a representative panel of SBLs from different classes (TEM-1, Temoneira β-lactamase-1, class A; CTX-M-15, cefotaxime hydrolysing β-lactamase from Munich 15, class A, extended spectrum β-lactamase (ESBL); AmpC E. coli, class C, and OXA-10, oxacillinase-10, class D).” for “ions.”
Figure S6: IC50 curves for VIM-2 inhibition time courses. Residual activities were calculated from the
as §3

[5] = molecular target: T4, BcII (Bacillus cereus, UniProt P04190); assay: biochemical; conditions: enethiols 6 assayed as sodium salts; 10 min incubation; read-out: IC50 BcII (converted)
T4 construct: made in house
Description: as §1, §2
Figure S2: IC50 curves for BcII inhibition time courses. Residual activities were calculated from the initial
rate of FC5 hydrolysis after incubation of the enzyme with the inhibitor for 10 minutes. […]

T1 sequence (P52699 19-246, looked up, species assumed): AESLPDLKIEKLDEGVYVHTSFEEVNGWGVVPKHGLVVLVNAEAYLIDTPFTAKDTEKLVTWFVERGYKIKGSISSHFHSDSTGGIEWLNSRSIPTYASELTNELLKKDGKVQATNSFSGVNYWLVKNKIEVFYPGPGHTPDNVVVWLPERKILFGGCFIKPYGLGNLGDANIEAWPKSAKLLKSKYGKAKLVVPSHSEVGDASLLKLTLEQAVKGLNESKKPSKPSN
T4 sequence (P04190 31-257): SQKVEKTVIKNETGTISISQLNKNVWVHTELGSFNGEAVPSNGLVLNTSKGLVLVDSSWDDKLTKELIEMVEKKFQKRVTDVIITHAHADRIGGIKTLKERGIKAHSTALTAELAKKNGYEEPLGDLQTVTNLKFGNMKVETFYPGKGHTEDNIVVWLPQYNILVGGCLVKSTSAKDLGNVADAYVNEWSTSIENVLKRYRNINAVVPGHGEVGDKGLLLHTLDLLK
Sequence of SPM-1 (Q8G9Q0 entry or part of it): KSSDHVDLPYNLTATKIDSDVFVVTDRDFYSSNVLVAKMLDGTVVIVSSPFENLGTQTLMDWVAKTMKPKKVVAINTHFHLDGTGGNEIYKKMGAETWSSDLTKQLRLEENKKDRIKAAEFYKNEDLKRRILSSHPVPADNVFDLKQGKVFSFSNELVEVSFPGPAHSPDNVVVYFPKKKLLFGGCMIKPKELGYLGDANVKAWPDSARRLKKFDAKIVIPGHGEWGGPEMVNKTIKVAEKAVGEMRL
T2 sequence (C7C422 29-270, looked up, species assumed): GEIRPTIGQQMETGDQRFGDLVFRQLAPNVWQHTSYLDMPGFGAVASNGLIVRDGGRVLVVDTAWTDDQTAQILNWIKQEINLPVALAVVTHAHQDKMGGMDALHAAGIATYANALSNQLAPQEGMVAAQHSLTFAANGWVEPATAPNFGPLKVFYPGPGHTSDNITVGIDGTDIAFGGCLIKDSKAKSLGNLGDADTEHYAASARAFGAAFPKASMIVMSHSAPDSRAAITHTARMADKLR

Row | SMILES | IC50 [1] [µM] | IC50 [2] [µM] | IC50 [3] [µM] | IC50 [4] [µM] | IC50 [5] [µM]
1 | CN1CCN(NC(=O)CN2C(=O)/C(=C/c3cc(Cl)ccc3Cl)SC2=S)CC1 [Compound 5o] | 7 | 2.8 | > 50 | > 50 | 15.4
2 | O=C(O)/C(S)=C/c1ccccc1Br [Compound 6h] | 0.8 | 3.5 | 16.2 | 2.7 | 5.8
3 | CN1CCN(NC(=O)CN2C(=O)/C(=C/c3ccccc3Br)SC2=S)CC1 [Compound 5h] | 8.3 | 8.1 | > 50 | 11.4 | 14.6
4 | CN1CCN(NC(=O)CN2C(=O)/C(=C/c3ccccc3Cl)SC2=S)CC1 [Compound 5g] | 7.6 | 9.8 | > 50 | 2 | > 50
5 | CN1CCN(NC(=O)CN2C(=O)/C(=C/c3ccc(Br)cc3)SC2=S)CC1 [Compound 5d] | 28.7 | > 50 | > 50 | 44 | > 50
6 | O=C(O)/C(S)=C/c1ccccc1Cl [Compound 6g] | 0.4 | 0.1 | 5.1 | 0.4 | 0.9
7 | O=C(O)/C(S)=C/c1ccccc1Cc1ccc2ccccc2c1 [Compound 6s] | 0.08 ± 0.002 | 0.06 ± 0.003 | 1.1 ± 1.7 | 0.1 ± 0.003 | 0.2 ± 0.03
8 | CN1CCN(NC(=O)CN2C(=O)/C(=C/c3c(F)cccc3F)SC2=S)CC1 [Compound 5p] | 1.3 | 1.3 | > 50 | 41.7 | 3
9 | O=C(O)CN1C(=O)/C(=C/c2csc3ccccc23)SC1=S [Compound 3L] | > 50 | 13.9 ± 0.5 | > 50 | 36.9 ± 0.2 | 21.7 ± 2.4
10 | O=C(O)CN1C(=O)/C(=C/c2ccc(Br)cc2)SC1=S [Compound 3d] | > 50 | 39.7 ± 0.8 | > 50 | > 50 | > 50
11 | Cc1ccc(/C=C2\SC(=S)N(CC(=O)NN3CCN(C)CC3)C2=O)cc1 [Compound 5b] | > 50 | > 50 | 28 | > 50 | > 50
12 | Cc1cccc(C)c1/C=C1\SC(=S)N(CC(=O)NN2CCN(C)CC2)C1=O [Compound 5q] | 2.7 | 0.2 | > 50 | 29.4 | 27
13 | CN1CCN(NC(=O)CN2C(=O)/C(=C/c3cccc(Cl)c3Cl)SC2=S)CC1 [Compound 5n] | 0.6 | 0.3 | 32.8 | 39.5 | 1.1
14 | O=C(O)CN1C(=O)/C(=C/c2cc(Cl)ccc2Cl)SC1=S [Compound 3o] | > 50 | 16.6 ± 1 | > 50 | > 50 | > 50
15 | Cc1ccc(/C=C(\S)C(=O)O)cc1 [Compound 6b] | 0.2 | 0.3 | 3.7 | 0.4 | 0.7
16 | Cc1cccc(C)c1/C=C1\SC(=S)N(CC(=O)O)C1=O [Compound 3q] | > 50 | > 50 | > 50 | 18.7 ± 1 | > 50
17 | O=C(O)CN1C(=O)/C(=C/c2ccccc2F)SC1=S [Compound 3f] | > 50 | > 50 | > 50 | 17.6 ± 0.7 | > 50
18 | O=C(O)CN1C(=O)/C(=C/c2c(F)ccc(F)c2F)SC1=S [Compound 3k] | 46.5 ± 0.7 | 8.8 ± 0.3 | > 50 | 47.6 ± 0.4 | 27 ± 2.2
19 | COc1ccc(/C=C(\S)C(=O)O)cc1 [Compound 6e] | 0.8 | 0.6 | 8.2 | 0.4 | 2.4
20 | CN1CCN(NC(=O)CN2C(=O)/C(=C/c3c(F)cccc3Cl)SC2=S)CC1 [Compound 5j] | 0.3 | 0.1 | > 50 | 0.8 | 2

Row | SMILES | IC50 [1] [µM] | IC50 [2] [µM] | IC50 [3] [µM] | IC50 [4] [µM] | IC50 [5] [µM]
21 | O=C(O)CN1C(=O)/C(=C/c2cccc(Cl)c2Cl)SC1=S [Compound 3n] | 46.2 ± 1.4 | 1 ± 0.1 | > 50 | 7.6 ± 0.3 | 22.1 ± 1
22 | O=C(O)CN1C(=O)/C(=C/c2ccccc2I)SC1=S [Compound 3i] | 22.4 ± 0.4 | 2 ± 0.5 | > 50 | 5.9 ± 0.1 | 31.7 ± 1
23 | CN1CCN(NC(=O)CN2C(=O)/C(=C/c3ccc(F)cc3)SC2=S)CC1 [Compound 5c] | > 50 | > 50 | > 50 | > 50 | > 50
24 | O=C(O)CN1C(=O)/C(=C/c2c(F)cccc2F)SC1=S [Compound 3p] | > 50 | 32.1 ± 2.3 | > 50 | 6.8 ± 0.2 | > 50
25 | CN1CCN(NC(=O)CN2C(=O)/C(=C/c3ccccc3I)SC2=S)CC1 [Compound 5i] | 37.1 | 8.8 | > 50 | 37.6 | > 50
26 | O=C(O)/C(S)=C/c1c(F)cccc1Cl [Compound 6j] | 0.03 | 0.0043 | 4.4 | 0.05 | 0.06
27 | O=C(O)CN1C(=O)/C(=C/c2ccccc2)SC1=S [Compound 3a] | > 50 | > 50 | > 50 | 36.8 ± 0.3 | > 50
28 | O=C(O)/C(S)=C/c1ccc(F)cc1 [Compound 6c] | 2.7 | 4.1 | 5 | 9.7 | 8.2
29 | O=C(O)/C(S)=C/c1ccccc1F [Compound 6f] | 1.4 | 0.3 | 12.9 | 3.3 | 4
30 | O=C(O)CN1C(=O)/C(=C/c2ccccc2Br)SC1=S [Compound 3h] | 32.5 ± 1.3 | 36.6 ± 0.8 | > 50 | > 50 | > 50
31 | COc1ccc(/C=C2\SC(=S)N(CC(=O)NN3CCN(C)CC3)C2=O)cc1 [Compound 5e] | 31.5 | > 50 | 48.9 | > 50 | > 50
32 | O=C(O)CN1C(=O)/C(=C/c2ccc(F)cc2)SC1=S [Compound 3c] | > 50 | > 50 | > 50 | 34.5 ± 0.6 | > 50
33 | O=C(O)CN1C(=O)/C(=C/c2c(Cl)cccc2Cl)SC1=S [Compound 3m] | 18.9 ± 0.8 | 3.5 ± 0.4 | > 50 | 0.6 ± 0.1 | 41.8 ± 2.3
34 | CN1CCN(NC(=O)CN2C(=O)/C(=C/c3ccccc3F)SC2=S)CC1 [Compound 5f] | 22.6 | 42.7 | > 50 | 6.2 | 26.3
35 | O=C(O)CN1C(=O)/C(=C/c2ccccc2Cl)SC1=S [Compound 3g] | 43.2 ± 2.1 | 25.1 ± 1.5 | > 50 | 6.7 ± 0.2 | > 50
36 | Cc1ccc(/C=C2\SC(=S)N(CC(=O)O)C2=O)cc1 [Compound 3b] | > 50 | > 50 | > 50 | 32 ± 0.7 | > 50
37 | O=C(O)CN1C(=O)/C(=C/c2c(Cl)ccc(Cl)c2Cl)SC1=S [ML302A] | 9.6 ± 0.4 | 4.8 ± 0.3 | > 50 | 3.6 ± 0.7 | 21.3 ± 0.5
38 | O=C(O)/C(S)=C/c1ccccc1I [Compound 6i] | 0.7 | 1.4 | 5 | 3.5 | 
39 | O=C(O)/C(S)=C/c1ccc(Br)cc1 [Compound 6d] | 3.3 | 2.3 |  | 9.4 | 9.9
